Tests used:
Settings in all cases: 72 h
U2OS [1] = test: cell viability relative to DMSO; higher = less toxic
Caco-2 [2] = test: as above
HepG2 [3] = test: as above
Calu-3 [4] = test: as above
Vero E6 [5] = test: as above
U2OS [6] = test: drug sensitivity score (DSS) for viability; higher = more toxic; extreme values may be limits of the assay
Caco-2 [7] = test: as above
HepG2 [8] = test: as above
Calu-3 [9] = test: as above
Vero E6 [10] = test: as above
U2OS [11] = test: relative viability EC50 (midpoint between 100% and the lowest measured viability); higher = less toxic
Caco-2 [12] = test: as above
HepG2 [13] = test: as above
Calu-3 [14] = test: as above
Vero E6 [15] = test: as above

Structure (SMILES) | cell viability (U2OS [1]; 1 nM) | cell viability (U2OS [1]; 10 nM) | cell viability (U2OS [1]; 100 nM) | cell viability (U2OS [1]; 1000 nM) | cell viability (U2OS [1]; 10000 nM) | cell viability (Caco-2 [2]; 1 nM) | cell viability (Caco-2 [2]; 10 nM) | cell viability (Caco-2 [2]; 100 nM) | cell viability (Caco-2 [2]; 1000 nM) | cell viability (Caco-2 [2]; 10000 nM) | cell viability (HepG2 [3]; 1 nM) | cell viability (HepG2 [3]; 10 nM) | cell viability (HepG2 [3]; 100 nM) | cell viability (HepG2 [3]; 1000 nM) | cell viability (HepG2 [3]; 10000 nM) | cell viability (Calu-3 [4]; 1 nM) | cell viability (Calu-3 [4]; 10 nM) | cell viability (Calu-3 [4]; 100 nM) | cell viability (Calu-3 [4]; 1000 nM) | cell viability (Calu-3 [4]; 10000 nM) | cell viability (Vero E6 [5]; 1 nM) | cell viability (Vero E6 [5]; 10 nM) | cell viability (Vero E6 [5]; 100 nM) | cell viability (Vero E6 [5]; 1000 nM) | cell viability (Vero E6 [5]; 10000 nM) | drug sensitivity score (U2OS [6]) | drug sensitivity score (Caco-2 [7]) | drug sensitivity score (HepG2 [8]) | drug sensitivity score (Calu-3 [9]) | drug sensitivity score (Vero E6 [10]) | relative viability EC50 (U2OS [11]) | relative viability EC50 (Caco-2 [12]) | relative viability EC50 (HepG2 [13]) | relative viability EC50 (Calu-3 [14]) | relative viability EC50 (Vero E6 [15])
O=C(O)c1cc2ccccc2s1 [BL-5583] | 103% | 105% | 100% | 100% | 98% | 97.7% | 107% | 102% | 102% | 100% | 112% | 109% | 97.4% | 98.8% | 110% | 98% | 106% | 106% | 98.7% | 141% | 102% | 95.7% | 97.5% | 101% | 93% | 0 | 0 | 0 | 0 | 0 | > 10 µM | > 10 µM | > 10 µM | > 10 µM | > 10 µM
OC[C@H]1O[C@@H](c2ccc(F)c(Cc3cc4ccccc4s3)c2)[C@H](O)[C@@H](O)[C@@H]1O [ipragliflozin-L-proline] | 99.2% | 98.7% | 99.4% | 104% | 99% | 108% | 99.8% | 100% | 101% | 100% | 108% | 101% | 105% | 96.3% | 111% | 92.4% | 108% | 98% | 110% | 100% | 110% | 104% | 105% | 99.4% | 103% | 0 | 0 | 0 | 0 | 0 | > 10 µM | > 10 µM | > 10 µM | > 10 µM | > 10 µM
C=CCNc1ncnc2ccc(Br)cc12 [SMER-28] | 101% | 97% | 102% | 96.9% | 101% | 99.5% | 93.4% | 98.7% | 103% | 91.2% | 92.3% | 98% | 102% | 102% | 78.8% | 101% | 103% | 96.1% | 100% | 82.7% | 93.6% | 98.3% | 95.8% | 99.8% | 101% | 0 | 0 | 0.6 | 0.4 | 0 | > 10 µM | > 10 µM | > 10 µM | > 10 µM | > 10 µM
O=C1COc2c(CCNCCN(C(=O)CCNCCc3ccc(Cl)c(Cl)c3)C3CCCCC3)ccc(O)c2N1 [AZ505] | 102% | 101% | 99.2% | 103% | 91.2% | 104% | 98.4% | 95.8% | 97.8% | 97.9% | 95.9% | 98.6% | 118% | 97.2% | 89.4% | 88.2% | 89.6% | 108% | 102% | 105% | 107% | 99.4% | 104% | 99.7% | 109% | 0 | 0 | 0 | 0 | 0 | > 10 µM | > 10 µM | > 10 µM | > 10 µM | > 10 µM

Source: the supplement of paper PMC13380429
